According to patent publication US20170176436A1, “METHODS (AMACR)” (UNIVERSITY OF BATH, priority 2014, published 2017):

Experiments:
[1] = biological target: T1, human recombinant AMACR 1A (Homo sapiens, UniProt Q9UHK6); assay: Colorimetric assay for AMACR, 96-well plate, absorbance at 354 nm; type: biochemical
T1 construct: made in house
T1 sequence (Q9UHK6 1-382): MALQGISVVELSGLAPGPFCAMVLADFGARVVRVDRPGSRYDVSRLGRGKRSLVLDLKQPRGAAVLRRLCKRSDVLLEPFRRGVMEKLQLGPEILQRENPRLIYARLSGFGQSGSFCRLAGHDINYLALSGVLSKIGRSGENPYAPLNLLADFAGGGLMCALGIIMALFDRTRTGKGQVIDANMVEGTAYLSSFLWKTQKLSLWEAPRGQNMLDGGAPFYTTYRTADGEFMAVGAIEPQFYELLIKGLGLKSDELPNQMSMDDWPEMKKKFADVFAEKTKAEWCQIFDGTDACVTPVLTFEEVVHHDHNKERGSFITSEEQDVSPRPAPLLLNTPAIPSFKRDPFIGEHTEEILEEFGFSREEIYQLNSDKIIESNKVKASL
Protocol: Based on this elimination reaction, a colorimetric assay was developed. […] 2,4-dintrophenol was chosen as the leaving group as the pKa of the acid is similar to that of HF.
The elimination reaction is shown in Reaction Scheme 2 below:
The above assay was transferred into a 96-well plate format with the extent of reaction monitored by absorbance at 354 nm. The reaction was carried out in Na2HPO4—NaOH, pH 7.4 in a total volume of 100 μL containing 8.05 μg (0.17 nmoles) of human recombinant AMACR 1A.
The kinetics assay was carried out in a 96 well plate. Substrate stock solutions (at 2× the final concentration) were prepared by serial dilution in a total volume of 150 μL in phosphate buffer (as already described). This solution (50 μL) was transferred into […], such that three identical wells were prepared. The reaction was initiated by adding a 2× stock solution of enzyme (50 μL per well) to the substrate, mixing and measuring the change in absorbance at 354 nm over a 15 minute time course, with data collected every 60 seconds. The reaction was conducted at ambient room temperature, ca. 25° C. The final concentrations of substrate (in the assay, after adding the enzyme) were: 256.3, 180.9, 113.9, 75.9, 50.6, 33.8, 22.5, 15.0 μM.
Rates were determined by plotting the absorbance vs. time in Microsoft Excel. The initial rate was used before the rate starts to reduce due to substrate depletion and other reasons. The rate in absorbance units/min was derived by fitting a straight line to the points and determining the slope from the y=mx+c equation.
The data was converted into nmol/min/mg using the extinction coefficient,^8 the pathlength (calculated by the plate-reader based on the volume of the reaction; 0.33 cm), and the amount of enzyme determined by UV-visible spectroscopy.^1 Kinetic constants were derived using SigmaPlot 12 with the enzyme kinetics macro function. Fitting assumed a single substrate per active site, two active sites per dimer (one active sites per protein molecule), with three repeats of each rate. […] Kinetic data was also calculated using the Direct Linear Plot^3,4 A similar method (with a different enzyme) has also been described.^10

Human AMACR [2] = biological target: T2, Human AMACR (Homo sapiens, UniProt Q9UHK6); assay: AMACR-catalysed elimination reaction of 3-fluoro-2-methylacyl-CoA esters, monitored by 1H and 19F NMR; type: biochemical
T2 construct: inferred only from purification by metal-chelate chromatography; made in house; host or cells: E. coli Rosetta2 (DE3)
T2 sequence (Q9UHK6 1-382): T1 sequence (Q9UHK6 1-382)
Protocol: (§1) Human AMACR was expressed in E. coli Rosetta2 (DE3) at 22° C. overnight shaking at 220 r.p.m.^1 Cells (˜2 g) were lysed using the ‘one shot’ in ˜30 mL buffer supplemented with 250u benzonase (Novagen) and stirred with 1.5% (w/v) N-lauroyl-sarcosine at 4° C. for 1 hour. Following centrifugation, enzyme was purified by metal-chelate chromatography, dialysed into 20 mM NaH2PO4—NaOH, pH 7.4 and stored at −80° C.^1,2
(§2) Assays were conducted in buffer containing ^2H2O and 100 μM acyl-CoA substrate as previously described, with negative controls contain heat-inactivated enzyme. ±-Fenoprofenoyl-CoA or 2-methyldecanoyl-CoA was used as known substrates.^1,2 Assays were quenched by heating to 50° C. for 10 minutes before ^1H NMR analysis (500.13 MHz). Conversion of substrates was quantified by conversion of the 2-Me doublet at ca. 1.0 p.p.m. into a singlet.^1,2 Kinetic data was analysed as previously described^1,2 and parameters were obtained using SigmaPlot 12 with the Direct Linear Plot^3,4 and non-linear fitting of Michaelis-Menten parameters.
(§3) The 3S and 3R stereoisomers of the 3-fluoro-2-methylacyl-CoA esters were then incubated with AMACR and the reaction was monitored by ^1H and ^19F NMR. Interconversion of 3S and 3R by chiral inversion was expected to be observed. […] The synthetic product compound was produced from the E-acid, which had the alkene proton at 6.92 p.p.m., whilst the Z-isomer has an alkene proton at 6.09 p.p.m. in the ^1H NMR spectrum. The presence of fluoride was observed as a characteristic signal at −120 p.p.m. in the ^19F spectrum. Increasing amounts of the unsaturated product compound and inorganic fluoride were observed upon incubation of either 3S or 3R with AMACR for longer times. This reaction was not observed in negative controls containing heat-inactivated enzyme. […] This observed irreversibility of the elimination reaction probably results from the high levels of hydration of the fluoride anion.

[3] = biological target: T1, human recombinant AMACR 1A; assay: Measurement of inhibitor potency using the elimination assay (1H NMR); type: biochemical
Protocol: Assays were performed as previously described in a total volume of […] in the presence of ^2H2O. using human recombinant AMACR 1A^2. In the following table inhibitor at 100 μM was incubated with enzyme for 10 minutes at room temperature. The reaction was initiated by addition of a stock solution of substrate (2S,3R-3-fluoro-2-methyldecanoyl-CoA) to a final concentration of 100 μM, followed by incubation at 30° C. for 1 hour. The reaction was terminated by heating at ca. 55° C. for 10 minutes. The cooled reaction mixture analysed by ^1H NMR by the appearance of the unsaturated product peak at ca. 1.75 ppm and comparison to the residual substrate peak at 1.1 ppm.^5 Assays were compared to a positive control (no inhibitor) and conversion levels are corrected for levels in negative controls (boiled enzyme). The data in the table is the average of two […] repeats.
Similar assays were also conducted where inhibitor and substrate were added to the enzyme simultaneously.

Human AMACR [4] = biological target: T2, Human AMACR; assay: AMACR chiral inversion reaction of a known substrate, 1H NMR assay; type: biochemical
Protocol: as §1, §2

[5] = substrate: CCCCCCCCC(C)C(=O)SCCNC(=O)CCNC(=O)[C@H](O)C(C)(C)COP(=O)(O)OP(=O)(O)OC[C@H]1O[C@@H](n2cnc3c(N)ncnc32)[C@H](O)[C@@H]1OP(=O)(O)O; assay: as above; type: biochemical, human; conditions: other: chiral inversion reaction; pH 7.4
Protocol: as §1, §2

[6] = substrate: CCCCCCC[C@@H](F)[C@@H](C)C(=O)SCCNC(=O)CCNC(=O)[C@H](O)C(C)(C)COP(=O)(O)OP(=O)(O)OC[C@H]1O[C@@H](n2cnc3c(N)ncnc32)[C@H](O)[C@@H]1OP(=O)(O)O; assay: AMACR-catalysed elimination reaction of 3-fluoro-2-methylacyl-CoA esters, monitored by 1H and 19F NMR; type: biochemical, human; conditions: other: elimination reaction; Direct Linear Plot; 1H NMR; pH 7.4
Protocol: as §1, §2, §3

[7] = elimination of 2,4-dinitrophenoxide, pH 7.4, ca. 25° C., absorbance 354 nm
[8] = elimination reaction, Direct Linear Plot, 1H NMR
[9] = inhibitor 100 μM incubated with enzyme 10 minutes at room temperature before substrate, enzyme 0.06 mg/mL, substrate 2S,3R-3-fluoro-2-methyldecanoyl-CoA 100 μM, 30° C. 1 hour
[10] = inhibitor and substrate added to the enzyme simultaneously, enzyme 0.12 mg/mL

Molecule: CC(COc1ccc([N+](=O)[O-])cc1[N+](=O)[O-])C(=O)SCCNC(=O)CCNC(=O)[C@H](O)C(C)(C)COP(=O)(O)OP(=O)(O)OC[C@H]1O[C@@H](n2cnc3c(N)ncnc32)[C@H](O)[C@@H]1OP(=O)(O)O (mixture of isomers) [colorimetric substrate, racemic 3-(2,4-dinitrophenoxy)-2-methyl-propanoyl-CoA]
- conversion efficiency relative to anti-3-fluoro-2-methyldecanoyl-CoA, as judged by kcat/Km [1]: ~35%
- colour produced on incubation with active AMACR ([1]; absent in negative controls using heat-inactivated enzyme): intense yellow colour
- Km [1, 7]: 18 µM
- Vmax [1, 7]: 27.61 nmol/min/mg
- kcat [1, 7]: 0.023 s⁻¹

Molecule: CCCCCCC[C@@H](F)[C@H](C)C(=O)SCCNC(=O)CCNC(=O)[C@H](O)C(C)(C)COP(=O)(O)OP(=O)(O)OC[C@H]1O[C@@H](n2cnc3c(N)ncnc32)[C@H](O)[C@@H]1OP(=O)(O)O [Compound 5, (2S,3R)-3-Fluoro-2-methyldecanoic-CoA]
- Km (Human AMACR [2]; [8]): 21 µM
- Vmax (Human AMACR [2]; [8]): 96.5 nmol·min^−1·mg polypeptide^−1
- kcat (Human AMACR [2]; [8]): 0.0758 s⁻¹

Molecule: CCCCCCC[C@@H](F)[C@@H](C)C(=O)SCCNC(=O)CCNC(=O)[C@H](O)C(C)(C)COP(=O)(O)OP(=O)(O)OC[C@H]1O[C@@H](n2cnc3c(N)ncnc32)[C@H](O)[C@@H]1OP(=O)(O)O [Compound 11, (2R,3R)-3-Fluoro-2-methyldecanoyl-CoA]
- Vmax (Human AMACR [2]; [8]): ~50.6 nmol·min^−1·mg polypeptide^−1
- background conversion in negative controls (non-enzymatic elimination) (Human AMACR [2]; negative controls with heat-inactivated enzyme): significant background conversion

Molecule: CC(C(=O)SCCNC(=O)CCNC(=O)C(O)C(C)(C)COP(=O)(O)OP(=O)(O)OCC1OC(n2cnc3c(N)ncnc32)C(O)C1OP(=O)(O)O)c1cccc(Oc2ccccc2)c1 (stereo not shown) [Fenoprofenoyl-CoA]
- Average reduction in conversion [3, 9]: 14.1%

Molecule: CC(C(=O)SCCNC(=O)CCNC(=O)C(O)C(C)(C)COP(=O)(O)OP(=O)(O)OCC1OC(n2cnc3c(N)ncnc32)C(O)C1OP(=O)(O)O)c1ccc(-c2ccccc2)c(F)c1 (stereo not shown) [Flurbiprofenoyl-CoA]
- Average reduction in conversion [3, 9]: 3.5%

Molecule: CC(C)Cc1ccc(C(C)C(=O)SCCNC(=O)CCNC(=O)C(O)C(C)(C)COP(=O)(O)OP(=O)(O)OCC2OC(n3cnc4c(N)ncnc43)C(O)C2OP(=O)(O)O)cc1 (stereo not shown) [Ibuprofenoyl-CoA]
- Average reduction in conversion [3, 9]: 14.5%
- Average reduction in conversion [3, 10]: 11%

Molecule: CC(C(=O)SCCNC(=O)CCNC(=O)C(O)C(C)(C)COP(=O)(O)OP(=O)(O)OCC1OC(n2cnc3c(N)ncnc32)C(O)C1OP(=O)(O)O)c1cccc(C(=O)c2ccccc2)c1 (stereo not shown) [Ketoprofenoyl-CoA]
- Average reduction in conversion [3, 9]: 4.5%

Molecule: COc1ccc2cc(C(C)C(=O)SCCNC(=O)CCNC(=O)C(O)C(C)(C)COP(=O)(O)OP(=O)(O)OCC3OC(n4cnc5c(N)ncnc54)C(O)C3OP(=O)(O)O)ccc2c1 (stereo not shown) [Naproxenoyl-CoA]
- Average reduction in conversion [3, 9]: 4.7%

Molecule: CCCCCCCC[C@@H](C)C(=O)SCCNC(=O)CCNC(=O)[C@H](O)C(C)(C)COP(=O)(O)OP(=O)(O)OC[C@H]1O[C@@H](n2cnc3c(N)ncnc32)[C@H](O)[C@@H]1OP(=O)(O)O [R-2-methyldecanoyl-CoA]
- Average reduction in conversion [3, 10]: 13.6%

Molecule: CCCCCCCCC(C)C(=O)SCCNC(=O)CCNC(=O)[C@H](O)C(C)(C)COP(=O)(O)OP(=O)(O)OC[C@H]1O[C@@H](n2cnc3c(N)ncnc32)[C@H](O)[C@@H]1OP(=O)(O)O (stereo partly shown) [S-2-methyldecanoyl-CoA]
- Average reduction in conversion [3, 10]: 7.2%
- Vmax (Human AMACR [4]): 39.3 nmol·min^−1·mg^−1 polypeptide

B1: Human AMACR (Homo sapiens) (protein)
chain: T1 sequence (Q9UHK6 1-382)
notes: inferred only from purification by metal-chelate chromatography; made in house; host or cells: E. coli Rosetta2 (DE3)
- Km [5]: 277 µM
- kcat [5]: 0.0310 s⁻¹
- kcat/Km [5]: 112 M⁻¹ s⁻¹
- Km [6]: 40 µM
- kcat [6]: 0.0397 s⁻¹
- kcat/Km [6]: 993 M⁻¹ s⁻¹
